Measurements published in US10174033B2, “N6-substituted adenosine derivatives and N6-substituted adenine derivatives and uses thereof” (INSTITUTE OF MATERIA MEDICA, CHINESE ACADEMY OF MEDICAL …, priority 2009, dated 2019).

Tested on: male ICR-mice
Assay: Potentiation of sodium pentobarbital sleeping time test
Type: in vivo
Protocol: Effects of N^6-substituted adenosine derivatives and/or N^6-substituted adenine derivatives on sodium pentobarbital-induced sleeping time in mice.
Name of Experiment: Potentiation of sodium pentobarbital sleeping time test.
Method of Experiment: Groups of 8-10 male ICR-mice with an average weight of 18-22 g were used. They were dosed orally or i.p. with the test compound or the vehicle. Thirty min after i.p. injection or 60 min after oral dosing 38 mg/kg sodium pentobarbital were injected intravenously. The latency and duration of sleep (loss of righting reflex) were recorded. The percentage of prolongation of sleeping time was calculated as: [(sleeping time of experimental group)−(sleeping time of control group)]/(sleeping time of control group)×100%.

[1] = oral, 5 mg/kg, 38 mg/kg sodium pentobarbital 60 min later
[2] = oral, 2.5 mg/kg, 38 mg/kg sodium pentobarbital 60 min later
[3] = intraperitoneal, 1 mg/kg, 38 mg/kg sodium pentobarbital 30 min later
[4] = intraperitoneal, 5 mg/kg, 38 mg/kg sodium pentobarbital 30 min later

CC(Nc1ncnc2c1ncn2[C@@H]1O[C@H](CO)[C@@H](O)[C@H]1O)c1ccc(O)cc1 (mixture of isomers) [Example 47, N^6-[(±)-1-(4-hydroxyphenyl)-ethyl]-adenosine]
Sleep prolonging rate (%) [1]: 50%

CC(Nc1ncnc2c1ncn2[C@@H]1O[C@H](CO)[C@@H](O)[C@H]1O)c1ccc(N)cc1 (mixture of isomers) [Example 48, N^6-[(±)-1-(4-aminophenyl)-ethyl]-adenosine]
Sleep prolonging rate (%) [2]: 132%

COc1cc(C(C)Nc2ncnc3c2ncn3[C@@H]2O[C@H](CO)[C@@H](O)[C@H]2O)ccc1O (mixture of isomers) [Example 50, N^6-[(±)-1-(3-methoxy-4-hydroxy-phenyl)-ethyl]-adenosine]
Sleep prolonging rate (%) [1]: 119%

CCC(Nc1ncnc2c1ncn2[C@@H]1O[C@H](CO)[C@@H](O)[C@H]1O)c1ccccc1 (mixture of isomers) [Example 72, N^6-[(±)-1-(phenyl)-propyl]-adenosine]
Sleep prolonging rate (%) [2]: 135%

CCC(Nc1ncnc2c1ncn2[C@@H]1O[C@H](CO)[C@@H](O)[C@H]1O)c1ccc(OC)cc1 (mixture of isomers) [Example 74, N^6-[(±)-1-(4-methoxyphenyl)-propyl]-adenosine]
Sleep prolonging rate (%) [2]: 86%

CCCC(Nc1ncnc2c1ncn2[C@@H]1O[C@H](CO)[C@@H](O)[C@H]1O)c1ccccc1 (mixture of isomers) [Example 87, N^6-[(±)-1-(phenyl)-butyl]-adenosine]
Sleep prolonging rate (%) [1]: 57%

CCCC(Nc1ncnc2c1ncn2[C@@H]1O[C@H](CO)[C@@H](O)[C@H]1O)c1ccc(OC)cc1 (mixture of isomers) [Example 88, N^6-[(±)-1-(4-methoxyphenyl)-butyl]-adenosine]
Sleep prolonging rate (%) [1]: 80%

COc1ccc2c(c1)CCCC2Nc1ncnc2c1ncn2[C@@H]1O[C@H](CO)[C@@H](O)[C@H]1O (mixture of isomers) [Example 96, N^6-[(±)-(6-methoxy-1,2,3,4-tetrahydro-naphthalene-1-yl)]-adenosine]
Sleep prolonging rate (%) [1]: 170%

OC[C@H]1O[C@@H](n2cnc3c(NC4CCCc5c(O)cccc54)ncnc32)[C@H](O)[C@@H]1O (mixture of isomers) [Example 97, N^6-[(±)-(5-hydroxy-1,2,3,4-tetrahydro-naphthalene-1-yl)]-adenosine]
Sleep prolonging rate (%) [1]: 39%

CCCCCCCC(=O)OC[C@H]1O[C@@H](n2cnc3c(NC(C)c4cc(OC)c(OC)c(OC)c4)ncnc32)[C@H](O)[C@@H]1O (mixture of isomers) [Example 53, N^6-[(±)-1-(3,4,5-trimethoxyphenyl)-ethyl]-adenosine-5′-caprylate]
Sleep prolonging rate (%) [1]: 130%

COc1ccc(CCC(=O)OC[C@H]2O[C@@H](n3cnc4c(NC(C)c5cc(OC)c(OC)c(OC)c5)ncnc43)C(O)C2O)cc1 (mixture of isomers) [Example 54, N^6-[(±)-1-(3,4,5-trimethoxyphenyl)-ethyl]-adenosine-5′-p-methoxy-phenyl propionate]
Sleep prolonging rate (%) [1]: 76%

CCCOC[C@H]1O[C@@H](n2cnc3c(NC(C)c4cc(OC)c(OC)c(OC)c4)ncnc32)C(O)C1O (mixture of isomers) [Example 55, N^6-[(±)-1-(3,4,5-trimethoxyphenyl)-ethyl]-adenosine-5′-propyl ether]
Sleep prolonging rate (%) [1]: 14%

OC[C@H]1O[C@@H](n2cnc3c(NC(c4ccccc4)C4CCCCC4)ncnc32)C(O)C1O (mixture of isomers) [Example 93, N^6-[(±)-1-(cyclohexylphenyl)-methyl]-adenosine]
Sleep prolonging rate (%) [1]: 17%

OC[C@H]1O[C@@H](n2cnc3c(NC(Cc4ccccc4)c4ccccc4)ncnc32)C(O)C1O (mixture of isomers) [Example 94, N^6-[(±)-1-(1,2-diphenyl)-ethyl]-adenosine]
Sleep prolonging rate (%) [1]: 36%

CC(C(O)c1ccccc1)N(C)c1ncnc2c1ncn2[C@@H]1O[C@H](CO)C(O)C1O (mixture of isomers) [Example 137, N^6-methyl-N^6-[(±)-2-(1-hydroxy-1-phenyl)-propyl]-adenosine]
Sleep prolonging rate (%) [1]: 92%

COc1cc(C(C)Nc2ncnc3c2ncn3[C@H]2C[C@H](O)[C@@H](CO)O2)cc(OC)c1OC (mixture of isomers) [Example 157, N^6-[(±)-1-(3,4,5-trimethoxyphenyl)-ethyl]-2′-deoxy-adenosine]
Sleep prolonging rate (%) [1]: 9%

CC[C@H](Nc1ncnc2c1ncn2[C@@H]1O[C@H](COC(=O)/C=C/c2ccc(C)cc2)C(O)C1O)c1ccccc1 (stereo in doubt) [Example 82, N^6-[(S)-1-(phenyl)-propyl]-adenosine-5′-p-methyl-cinnamate]
Sleep prolonging rate (%) [1]: 50%

Cc1ccc(CNc2ncnc3c2ncn3[C@@H]2O[C@H](CO)[C@@H](O)[C@H]2O)cc1 [Example 4, N^6-(p-methylbenzyl)-adenosine]
Sleep prolonging rate (%) [3]: 51%

Cc1cccc(CNc2ncnc3c2ncn3[C@@H]2O[C@H](CO)[C@@H](O)[C@H]2O)c1 [Example 5, N^6-(m-methylbenzyl)-adenosine]
Sleep prolonging rate (%) [3]: 84%

Nc1ccc(CNc2ncnc3c2ncn3[C@@H]2O[C@H](CO)[C@@H](O)[C@H]2O)cc1 [Example 6, N^6-(p-aminobenzyl)-adenosine]
Sleep prolonging rate (%) [3]: 165%
Sleep prolonging rate (%) [1]: 171%

Cc1ccc(CNc2ncnc3c2ncn3[C@@H]2O[C@H](CO)[C@@H](O)[C@H]2O)o1 [Example 18, N^6-(5-methyl-2-furanylmethyl)-adenosine]
Sleep prolonging rate (%) [4]: 7%

OC[C@H]1O[C@@H](n2cnc3c(NCc4cccs4)ncnc32)[C@H](O)[C@@H]1O [Example 19, N^6-(2-thiopheneylmethyl)-adenosine]
Sleep prolonging rate (%) [4]: 12%

CCCCCCCCCCCC(=O)OCC1OC(n2cnc3c(NCc4ccc(OC(=O)CCCCCCCCCCC)c(OC)c4)ncnc32)C2OC(C)(C)OC12 (stereo not drawn) [Example 25, N^6-(3-methoxy-4-lauroyloxybenzyl)-2′,3′-O-isopropylidene-adenosine-5′-laurate]
Sleep prolonging rate (%) [1]: 27%

CCCCCCCC(=O)OC[C@H]1O[C@@H](n2cnc3c(NCc4ccc(OC(=O)CCCCCCC)c(OC)c4)ncnc32)[C@H](O)[C@@H]1O [Example 26, N^6-(3-methoxy-4-octanoyloxybenzyl)-adenosine-5′-caprylate]
Sleep prolonging rate (%) [1]: 184%

CCCCCCCC(=O)OC[C@H]1O[C@@H](n2cnc3c(NCc4ccc5c(c4)OCO5)ncnc32)[C@H](O)[C@@H]1O [Example 32, N^6-(3,4-methylenedioxybenzyl)-adenosine-5′-caprylate]
Sleep prolonging rate (%) [1]: 26%

CCCOC[C@H]1O[C@@H](n2cnc3c(NCc4ccc5c(c4)OCO5)ncnc32)C(O)C1O (stereo partly drawn) [Example 35, N^6-(3,4-methylenedioxybenzyl)-adenosine-5′-propyl ether]
Sleep prolonging rate (%) [1]: 36%

COc1cc(CNc2ncnc3c2ncn3[C@@H]2O[C@H](CO)C(O)C2O)cc(OC)c1OC (stereo partly drawn) [Example 37, N^6-(3,4,5-trimethxoybenzyl)-adenosine]
Sleep prolonging rate (%) [3]: 112%

OC[C@H]1O[C@@H](n2cnc3c(NCCc4ccc(O)c(O)c4)ncnc32)C(O)C1O (stereo partly drawn) [Example 38]
Sleep prolonging rate (%) [3]: 98%
Sleep prolonging rate (%) [1]: 69%

OC[C@H](Nc1ncnc2c1ncn2[C@@H]1O[C@H](CO)C(O)C1O)[C@@H](O)c1ccccc1 (stereo partly drawn) [Example 41, N^6-[(1S,2S)-2-(1,3-dihydroxy-1-phenyl)-propyl]-adenosine]
Sleep prolonging rate (%) [1]: 33%

OC[C@H]1O[C@@H](n2cnc3c(N[C@H](CO)[C@H](O)c4ccccc4)ncnc32)C(O)C1O (stereo partly drawn) [Example 42, N^6-[(1R,2R)-2-(1,3-dihydroxy-1-phenyl)-propyl]-adenosine]
Sleep prolonging rate (%) [1]: 4%

Cc1ccc([C@@H](C)Nc2ncnc3c2ncn3[C@@H]2O[C@H](CO)[C@@H](O)[C@H]2O)cc1 [Example 59, N^6-[(R)-1-(4-methylphenyl)-ethyl]-adenosine]
Sleep prolonging rate (%) [1]: 99%

Cc1ccc([C@H](C)Nc2ncnc3c2ncn3[C@@H]2O[C@H](CO)[C@@H](O)[C@H]2O)cc1 [Example 60, N^6-[(S)-1-(4-methylphenyl)-ethyl]adenosine]
Sleep prolonging rate (%) [1]: 19%

COc1ccc([C@@H](C)Nc2ncnc3c2ncn3[C@@H]2O[C@H](CO)[C@@H](O)[C@H]2O)cc1 [Example 62, N^6-[(R)-1-(4-methoxyphenyl)-ethyl]-adenosine]
Sleep prolonging rate (%) [1]: 66%

OC[C@@H](Nc1ncnc2c1ncn2[C@@H]1O[C@H](CO)[C@@H](O)[C@H]1O)c1ccccc1 [Example 64, N^6-[(L)-2-(hydroxy)-1-(phenyl)-ethyl]-adenosine]
Sleep prolonging rate (%) [1]: 67%

COc1cccc([C@@H](C)Nc2ncnc3c2ncn3[C@@H]2O[C@H](CO)[C@@H](O)[C@H]2O)c1 [Example 65, N^6-[(R)-1-(3-methoxyphenyl)-ethyl]-adenosine]
Sleep prolonging rate (%) [1]: 160%

COc1cccc([C@H](C)Nc2ncnc3c2ncn3[C@@H]2O[C@H](CO)[C@@H](O)[C@H]2O)c1 [Example 66, N^6-[(S)-1-(3-methoxyphenyl)-ethyl]-adenosine]
Sleep prolonging rate (%) [1]: 39%

C[C@@H](Nc1ncnc2c1ncn2[C@@H]1O[C@H](CO)[C@@H](O)[C@H]1O)c1ccc(Cl)cc1 [Example 68, N^6-[(R)-1-(4-chlorophenyl)-ethyl]-adenosine]
Sleep prolonging rate (%) [1]: 103%
